Assay results as given in ChEMBL document CHEMBL4507264, “Data for DCP probe BAY-7598” (2021).

What was measured:
Conditions in all cases: Compound concentration 10.0 uM
[1] = target: B1 bradykinin receptor (Homo sapiens) (UniProt P46663); assay: Inhibition of Bradykinin B1 at 10 µM in the Eurofins-Panlabs radioligand binding assay (Eurofins_assay_212510)
[2] = target: T1, D(4) dopamine receptor (Homo sapiens) (UniProt P21917); assay: Inhibition of Dopamine D4.2 at 10 µM in the Eurofins-Panlabs radioligand binding assay (Eurofins_assay_219900); design: ligand concentration 0.5 nM
T1 sequence (whole entry): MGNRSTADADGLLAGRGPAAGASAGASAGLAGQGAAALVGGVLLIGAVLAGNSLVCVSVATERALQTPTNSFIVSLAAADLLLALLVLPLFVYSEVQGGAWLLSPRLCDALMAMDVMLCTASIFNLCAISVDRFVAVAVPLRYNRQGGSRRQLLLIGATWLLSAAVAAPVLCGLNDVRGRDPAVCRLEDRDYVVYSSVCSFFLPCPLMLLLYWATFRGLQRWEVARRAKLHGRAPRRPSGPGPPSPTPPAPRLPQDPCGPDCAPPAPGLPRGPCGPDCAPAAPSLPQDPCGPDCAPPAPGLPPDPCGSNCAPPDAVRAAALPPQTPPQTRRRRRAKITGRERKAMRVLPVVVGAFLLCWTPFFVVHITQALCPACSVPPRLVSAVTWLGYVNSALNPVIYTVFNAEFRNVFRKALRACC

[3] = target: Epidermal growth factor receptor (Homo sapiens) (UniProt P00533); assay: Inhibition of Epidermal Growth Factor (EGF) at 10 µM in the Eurofins-Panlabs radioligand binding assay (Eurofins_assay_225510)
[4] = target: Glutamate receptor ionotropic, kainate (Rattus norvegicus) (UniProt P22756+Q01812+P42260+P42264+Q63273); assay: Inhibition of Glutamate, Kainate at 10 µM in the Eurofins-Panlabs radioligand binding assay (Eurofins_assay_232700)
Rattus norvegicus [5] = species on record: Rattus norvegicus; assay: Inhibition of Rolipram at 10 µM in the Eurofins-Panlabs radioligand binding assay (Eurofins_assay_268811); format: protein assay; design: ligand concentration 1.8 nM
[6] = target: Substance-P receptor (Homo sapiens) (UniProt P25103); assay: Inhibition of Tachykinin NK1 at 10 µM in the Eurofins-Panlabs radioligand binding assay (Eurofins_assay_255520); design: ligand concentration 0.8 nM
[7] = target: Adenosine receptor A1 (Homo sapiens) (UniProt P30542)
[8] = target: Cannabinoid receptor 1 (Homo sapiens) (UniProt P21554)
[9] = target: Endothelin receptor type B (Homo sapiens) (UniProt P24530)
[10] = target: GABA-A receptor; anion channel (Rattus norvegicus) (UniProt O09028+P15431+P18506+P18508+P19969+P20236+P23574+P23576+P28471+P28473+P30191+P62813+P63079+P63138+Q91ZM7+Q9ES14)
[11] = target: Histamine H1 receptor (Homo sapiens) (UniProt P35367)
[12] = target: T2, Muscarinic acetylcholine receptor M1 (Homo sapiens) (UniProt P11229)
T2 sequence (whole entry): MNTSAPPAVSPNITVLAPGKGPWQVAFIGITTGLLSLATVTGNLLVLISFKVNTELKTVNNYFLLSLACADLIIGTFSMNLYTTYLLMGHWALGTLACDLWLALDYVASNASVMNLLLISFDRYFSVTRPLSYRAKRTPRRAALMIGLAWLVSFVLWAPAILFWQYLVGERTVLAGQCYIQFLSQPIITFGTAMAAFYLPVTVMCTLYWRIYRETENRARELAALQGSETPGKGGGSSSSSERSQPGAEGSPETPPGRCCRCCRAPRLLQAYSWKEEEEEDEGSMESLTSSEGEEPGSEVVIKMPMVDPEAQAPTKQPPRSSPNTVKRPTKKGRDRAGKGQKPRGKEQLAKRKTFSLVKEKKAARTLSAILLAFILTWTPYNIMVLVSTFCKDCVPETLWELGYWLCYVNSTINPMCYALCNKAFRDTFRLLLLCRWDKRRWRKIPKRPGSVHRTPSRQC

[13] = target: T3, Muscarinic acetylcholine receptor M2 (Homo sapiens) (UniProt P08172)
T3 sequence (whole entry): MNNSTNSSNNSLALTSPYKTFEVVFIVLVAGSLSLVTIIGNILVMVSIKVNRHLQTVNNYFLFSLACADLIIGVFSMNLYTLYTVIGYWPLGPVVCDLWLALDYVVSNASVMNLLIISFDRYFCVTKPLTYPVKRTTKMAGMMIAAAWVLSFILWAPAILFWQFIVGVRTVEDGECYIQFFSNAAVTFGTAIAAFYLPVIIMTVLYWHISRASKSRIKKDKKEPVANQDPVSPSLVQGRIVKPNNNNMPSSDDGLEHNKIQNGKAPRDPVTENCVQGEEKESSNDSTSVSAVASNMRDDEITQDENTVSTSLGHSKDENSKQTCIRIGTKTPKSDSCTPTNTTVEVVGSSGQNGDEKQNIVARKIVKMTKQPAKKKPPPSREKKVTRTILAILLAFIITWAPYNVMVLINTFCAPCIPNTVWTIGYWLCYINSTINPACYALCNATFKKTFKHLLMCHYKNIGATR

[14] = target: 5-hydroxytryptamine receptor 2B (Homo sapiens) (UniProt P41595)
[15] = target: Sodium-dependent dopamine transporter (Homo sapiens) (UniProt Q01959)
Rattus norvegicus [16] = species on record: Rattus norvegicus

Measured: inhibition

Sequence of Cannabinoid receptor 1 (Homo sapiens) (P21554 whole entry): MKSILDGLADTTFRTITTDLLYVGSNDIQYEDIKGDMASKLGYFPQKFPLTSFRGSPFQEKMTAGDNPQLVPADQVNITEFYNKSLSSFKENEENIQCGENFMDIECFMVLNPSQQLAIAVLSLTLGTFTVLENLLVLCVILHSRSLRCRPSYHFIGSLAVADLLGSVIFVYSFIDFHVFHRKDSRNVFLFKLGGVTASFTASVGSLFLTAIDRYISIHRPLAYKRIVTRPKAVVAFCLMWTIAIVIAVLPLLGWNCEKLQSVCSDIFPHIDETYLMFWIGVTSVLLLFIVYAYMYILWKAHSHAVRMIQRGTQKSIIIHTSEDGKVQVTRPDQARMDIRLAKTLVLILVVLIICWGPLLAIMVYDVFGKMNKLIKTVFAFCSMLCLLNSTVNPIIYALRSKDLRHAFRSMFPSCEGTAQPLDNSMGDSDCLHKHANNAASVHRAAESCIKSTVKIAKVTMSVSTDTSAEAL
Sequence of 5-hydroxytryptamine receptor 2B (Homo sapiens) (P41595 whole entry): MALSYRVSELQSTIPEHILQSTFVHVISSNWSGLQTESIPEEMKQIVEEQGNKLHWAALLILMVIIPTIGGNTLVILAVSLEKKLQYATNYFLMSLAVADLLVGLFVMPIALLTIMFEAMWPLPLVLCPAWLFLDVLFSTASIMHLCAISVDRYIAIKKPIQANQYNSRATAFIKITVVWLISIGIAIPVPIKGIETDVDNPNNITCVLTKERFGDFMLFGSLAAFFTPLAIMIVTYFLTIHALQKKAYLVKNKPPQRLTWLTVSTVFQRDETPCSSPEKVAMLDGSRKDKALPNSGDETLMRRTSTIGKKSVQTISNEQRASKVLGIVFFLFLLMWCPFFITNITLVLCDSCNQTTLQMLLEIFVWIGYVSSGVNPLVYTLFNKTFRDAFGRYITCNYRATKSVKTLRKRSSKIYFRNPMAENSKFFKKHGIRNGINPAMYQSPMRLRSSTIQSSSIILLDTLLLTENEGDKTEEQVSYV
Sequence of Endothelin receptor type B (Homo sapiens) (P24530 whole entry): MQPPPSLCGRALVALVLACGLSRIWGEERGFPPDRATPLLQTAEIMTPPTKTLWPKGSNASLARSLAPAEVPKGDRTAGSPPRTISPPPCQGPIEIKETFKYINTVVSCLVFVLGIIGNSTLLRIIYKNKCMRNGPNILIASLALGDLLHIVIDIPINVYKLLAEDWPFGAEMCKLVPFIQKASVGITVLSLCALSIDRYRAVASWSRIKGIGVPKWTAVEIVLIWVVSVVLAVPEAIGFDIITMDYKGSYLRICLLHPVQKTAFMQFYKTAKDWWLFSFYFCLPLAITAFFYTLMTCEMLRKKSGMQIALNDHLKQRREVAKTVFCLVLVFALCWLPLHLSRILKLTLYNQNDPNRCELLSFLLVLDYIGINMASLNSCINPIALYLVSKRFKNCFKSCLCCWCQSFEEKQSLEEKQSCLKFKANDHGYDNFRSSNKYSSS
Sequence of B1 bradykinin receptor (Homo sapiens) (P46663 whole entry): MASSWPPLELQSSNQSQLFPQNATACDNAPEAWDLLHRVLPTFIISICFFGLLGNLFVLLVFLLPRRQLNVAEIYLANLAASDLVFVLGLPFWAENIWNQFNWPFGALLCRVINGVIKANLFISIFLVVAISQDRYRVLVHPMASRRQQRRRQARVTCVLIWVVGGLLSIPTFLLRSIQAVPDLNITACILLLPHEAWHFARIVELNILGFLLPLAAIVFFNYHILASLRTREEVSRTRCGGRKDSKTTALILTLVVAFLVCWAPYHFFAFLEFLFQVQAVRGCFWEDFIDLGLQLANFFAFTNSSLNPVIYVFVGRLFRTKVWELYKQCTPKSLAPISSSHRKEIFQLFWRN
Sequence of Epidermal growth factor receptor (Homo sapiens) (P00533 whole entry): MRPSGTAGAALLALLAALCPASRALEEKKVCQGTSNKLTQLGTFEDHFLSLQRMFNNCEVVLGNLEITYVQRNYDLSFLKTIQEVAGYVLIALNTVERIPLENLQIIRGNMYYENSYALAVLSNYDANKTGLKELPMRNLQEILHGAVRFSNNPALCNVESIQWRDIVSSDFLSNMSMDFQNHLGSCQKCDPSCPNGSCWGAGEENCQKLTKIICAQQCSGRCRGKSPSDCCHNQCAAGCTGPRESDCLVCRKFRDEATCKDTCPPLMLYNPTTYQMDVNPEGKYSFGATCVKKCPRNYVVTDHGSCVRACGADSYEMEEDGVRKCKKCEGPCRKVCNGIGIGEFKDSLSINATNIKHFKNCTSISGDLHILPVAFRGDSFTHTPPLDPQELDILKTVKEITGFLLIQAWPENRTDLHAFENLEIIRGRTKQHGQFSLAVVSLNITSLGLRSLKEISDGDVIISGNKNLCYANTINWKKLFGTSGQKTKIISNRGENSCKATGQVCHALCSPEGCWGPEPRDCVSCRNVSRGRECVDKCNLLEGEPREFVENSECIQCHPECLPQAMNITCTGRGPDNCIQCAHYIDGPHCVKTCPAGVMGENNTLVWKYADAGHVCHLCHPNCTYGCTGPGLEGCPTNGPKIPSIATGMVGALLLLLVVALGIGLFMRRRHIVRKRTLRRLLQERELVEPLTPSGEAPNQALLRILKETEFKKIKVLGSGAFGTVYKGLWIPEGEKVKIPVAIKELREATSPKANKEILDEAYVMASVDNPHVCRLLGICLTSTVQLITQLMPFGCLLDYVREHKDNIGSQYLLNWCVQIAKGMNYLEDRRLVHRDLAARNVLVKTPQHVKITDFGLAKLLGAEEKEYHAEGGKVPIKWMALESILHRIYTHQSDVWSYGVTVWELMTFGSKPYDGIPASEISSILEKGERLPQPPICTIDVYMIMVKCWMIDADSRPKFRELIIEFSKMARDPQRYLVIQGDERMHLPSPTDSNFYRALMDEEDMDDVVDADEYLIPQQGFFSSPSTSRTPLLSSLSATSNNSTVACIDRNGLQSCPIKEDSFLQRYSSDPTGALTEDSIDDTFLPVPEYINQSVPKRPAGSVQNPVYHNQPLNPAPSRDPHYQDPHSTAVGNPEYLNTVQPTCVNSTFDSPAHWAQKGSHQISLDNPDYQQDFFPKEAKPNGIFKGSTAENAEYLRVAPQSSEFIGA
Sequence of Adenosine receptor A1 (Homo sapiens) (P30542 whole entry): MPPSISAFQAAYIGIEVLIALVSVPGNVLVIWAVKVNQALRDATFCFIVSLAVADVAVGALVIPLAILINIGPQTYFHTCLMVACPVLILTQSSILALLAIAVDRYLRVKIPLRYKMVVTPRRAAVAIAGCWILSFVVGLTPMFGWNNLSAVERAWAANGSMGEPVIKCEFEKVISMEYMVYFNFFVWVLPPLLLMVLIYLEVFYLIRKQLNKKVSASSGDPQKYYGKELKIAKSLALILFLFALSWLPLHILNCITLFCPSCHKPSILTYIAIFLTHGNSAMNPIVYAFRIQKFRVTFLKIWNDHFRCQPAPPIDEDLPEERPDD
Sequence of Sodium-dependent dopamine transporter (Homo sapiens) (Q01959 whole entry): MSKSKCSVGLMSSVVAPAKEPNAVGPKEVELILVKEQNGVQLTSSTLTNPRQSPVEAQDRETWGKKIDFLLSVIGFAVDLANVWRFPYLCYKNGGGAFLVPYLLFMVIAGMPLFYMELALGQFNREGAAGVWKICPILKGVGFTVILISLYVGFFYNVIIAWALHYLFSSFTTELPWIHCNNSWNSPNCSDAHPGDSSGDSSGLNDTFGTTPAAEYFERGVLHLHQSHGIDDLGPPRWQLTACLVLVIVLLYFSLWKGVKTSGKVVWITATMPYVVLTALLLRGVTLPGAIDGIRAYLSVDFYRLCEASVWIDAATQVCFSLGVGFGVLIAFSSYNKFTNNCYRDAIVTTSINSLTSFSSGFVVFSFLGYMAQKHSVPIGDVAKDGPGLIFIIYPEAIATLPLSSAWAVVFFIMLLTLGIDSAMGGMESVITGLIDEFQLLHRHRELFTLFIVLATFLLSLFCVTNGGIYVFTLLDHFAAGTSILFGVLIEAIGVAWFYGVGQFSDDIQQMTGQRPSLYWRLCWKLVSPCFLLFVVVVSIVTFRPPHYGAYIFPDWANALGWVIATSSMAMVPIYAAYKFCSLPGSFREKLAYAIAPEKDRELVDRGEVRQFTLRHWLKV
Sequence of Substance-P receptor (Homo sapiens) (P25103 whole entry): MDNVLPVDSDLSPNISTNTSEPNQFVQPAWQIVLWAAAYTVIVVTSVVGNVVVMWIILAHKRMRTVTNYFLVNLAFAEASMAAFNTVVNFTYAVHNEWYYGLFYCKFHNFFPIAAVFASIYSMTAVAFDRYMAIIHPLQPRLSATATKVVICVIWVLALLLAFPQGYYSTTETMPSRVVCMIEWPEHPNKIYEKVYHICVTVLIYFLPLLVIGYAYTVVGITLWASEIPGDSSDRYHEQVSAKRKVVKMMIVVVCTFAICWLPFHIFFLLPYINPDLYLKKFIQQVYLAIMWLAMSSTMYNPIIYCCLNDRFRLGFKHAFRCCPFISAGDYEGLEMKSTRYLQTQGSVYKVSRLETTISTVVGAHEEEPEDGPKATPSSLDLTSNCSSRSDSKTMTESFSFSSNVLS
Sequence of Histamine H1 receptor (Homo sapiens) (P35367 whole entry): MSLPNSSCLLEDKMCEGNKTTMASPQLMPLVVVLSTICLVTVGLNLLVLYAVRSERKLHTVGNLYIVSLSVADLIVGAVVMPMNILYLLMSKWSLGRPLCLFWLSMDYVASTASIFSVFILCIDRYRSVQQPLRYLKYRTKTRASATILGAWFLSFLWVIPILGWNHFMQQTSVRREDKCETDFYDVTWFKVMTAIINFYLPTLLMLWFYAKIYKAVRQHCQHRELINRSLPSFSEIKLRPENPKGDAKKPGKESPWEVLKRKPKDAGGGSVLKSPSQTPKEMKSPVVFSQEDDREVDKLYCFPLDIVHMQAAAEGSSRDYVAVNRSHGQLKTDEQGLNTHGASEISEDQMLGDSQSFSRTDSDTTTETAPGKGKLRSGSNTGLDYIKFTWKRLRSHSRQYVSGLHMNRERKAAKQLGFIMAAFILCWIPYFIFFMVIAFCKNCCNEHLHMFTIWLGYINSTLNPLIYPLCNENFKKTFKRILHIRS

O=C(O)[C@H]1[C@H](Cn2nnc3ccccc3c2=O)CC[C@@H]1C(=O)c1ccc(OCCC2CCOCC2)cc1 [BAY-7598]
inactive: [1] 6% | [2] -2% | [3] 7% | [4] -4% | Rattus norvegicus [5] 10% | [6] -4% | [7] -2% | [8] 17% | [9] 18% | [10] -2% | [11] 1% | [12] 0% | [13] 0% | [14] 4% | [15] 0% | Rattus norvegicus [16] 1%
